Test results as given in patent US20060205037A1, “Modified transferrin fusion proteins” (priority 2003, published 2006).

Experiments:
[1] = blood; cited from earlier work
db/db mice [2] = assay: food intake and post-prandial blood glucose, db/db mice; type: in vivo
Method: (§1) Mice (N=5 per group) were conditioned to eat once daily (9-10 am) for five days. […] Food intake and blood glucose levels were measured 2, 4, 7 and 24 h after peptide administration.

[3] = c-Fos activation in brain after IP injection; type: in vivo, mice; conditions: IP 1 nmol/kg
Method: (§2) Briefly, mice that received IP injections were anesthetized with isoflurane 2 h later and the mice that received ICV injections were anesthetized 1.5 and 24 h later. Intracardiac perfusion with ice-cold 4% paraformaldehyde was immediately carried out. Brains were removed immediately at the end of perfusion, kept in ice-cold 4% parafor maldehyde for 72 h, and then transferred to a solution containing 4% paraformaldehyde and 25% sucrose until they floated. Each brain as cut into 30 μm sections using a sliding microtome with a freezing stage. Brain sections from each animal were placed in a 12-well plate and then processed for immunocytochemistry. The free-floating sections from each animal were first incubated in 0.3% H2O2 for 30 min and then washed 3 times in PBS for 5 min/rinse. Thereafter the sections were incubated in blocking serum (normal goat serum/PBS/0.1% Triton) for 45 min at room temperature. The sections were stained for c-Fos with an antibody directed against the amino acid residues 4-17 in rabbit anti-human c-Fos (Calbiochem, 1:30,000) for 48 h at 4° C. The sections were then washed 6 times with PBS/0.1% Triton before incubation for 1.5 h at room temperature with biotinylated goat anti-rabbit IgG (1:600) in blocking serum (Vector Laboratories). Thereafter the sections were visualized with DAB (Vectastain ABC kit) and developed until the color reached the required intensity in the control sections. The reaction was stopped by immersion of the slides in distilled water. After the staining was completed, sections were mounted on superfrost slides (Fisher Scientific), air-dried for 1-2 days and coverslipped with Permount. Sections were examined using light microscopy to identify c-Fos-positive cells.

c-Fos [4] = assay: c-Fos activation in brain after IP injection; type: in vivo, mice
Method: as §2

RIN 1046-38 cells = assay: insulin secretion in RIN 1046-38 cells; type: cell-based; conditions: rat insulinoma cells, concentration-dependent
Method: Rat insulinoma cell line, RIN1046-38 cells, was obtained from Dr. Samuel A. Clark and cultured with 5% CO2 at 37° C. in M199 medium (Cellgro) as previously described (Wang et al., 2001, Endocrinology, 142: 1820-1827). […] Exendin-9-39 (1 μmol/l: Bachem), an inhibitor of the GLP-1R. was also added overnight to one set of experiments. The supernatant was then collected and saved at −80° C. for determination of insulin content by ELISA (Crystal Chems). Cells were lysed and the protein content was quantified using the Bradford method.

isolated rat islets = assay: insulin secretion in isolated rat islets; type: cell-based; conditions: concentration-dependent
Method: Islets from Sprague-Dawley rats were isolated as we previously described, with some modification (Wang et al., 1997, J. Clin. Invest. 99: 2883-2889). Briefly, pancreata were digested by Collagenase Type XI (Sigma) and islets separated through a Ficoll-Paque gradient (Amersham Biosciences). The isolated islets were washed several times using Hanks Balanced Salts Solution (Biosource) containing 0.2% bovine serum albumin (BSA, Sigma), hand-picked and cultured overnight with 5% CO2 at 37° C. in M199 medium supplemented with 5 mM glucose. Rat islets were then treated similarly to (30-40 per well) to RIN cells as described above.

[5] = GLP-1-Tf in serum of cynomolgus monkeys (Example 4); type: in vivo, cynomolgus monkeys (Macaca fascicularis); conditions: cAMP in CHO/GLP-1R
non-diabetic mice [6] = assay: IPGTT in non-diabetic mice after IP administration; type: in vivo; conditions: IP 1 and 10 mg/kg
Method: Intraperitoneal (IP) glucose tolerance testing (IPGTT) (0.5 g/kg body weight) was carried out after an overnight fast in non-diabetic mice. Tf and GLP-1-Tf were administered IP 30 min before the glucose injection. Blood glucose levels (Glucometer Elite, Bayer) were measured at 0, and 30 and 60 min and plasma insulin levels at 0 and 30 min after the IPGTT.

non-diabetic mice [7] = assay: blood glucose after SC administration, ad libitum fed non-diabetic mice; type: in vivo
diabetic db/db mice [8] = assay: overnight fast and IPGTT in diabetic mice after SC administration; type: in vivo
Method: A group of diabetic mice were given Tf or GLP-1-Tf via SC administration at 9 pm, fasted overnight and an IPGTT performed the next morning. The fasted Tf-treated animals had lower fasting blood glucose than ad libitum fed animals (238±39 versus 358±23 mg/dl; compare 0 time/fasted animals of FIG. 10c with 0 time/fed animals of FIG. 10a), and additionally, the animals given 1 or […] had lower fasting blood glucose (132±27 mg/dl) than those given Tf alone.

non-diabetic mice [9] = assay: food intake and post-prandial blood glucose, non-diabetic mice; type: in vivo
Method: as §1

db/db mice [10] = assay: β-cell proliferation (BrdU) and β-cell mass in db/db mice; type: in vivo; conditions: for increase in total β-cell mass: 10 mg/kg
Method: db/db mice, 6 per time point, received one IP injection of Tf (10 mg/kg) or GLP-1-Tf (10 mg/kg) and were sacrificed 1, 2 and 3 days later for measurement of β-cell proliferation and 3, 5, 8 and 10 days later for measurement of islet mass. Sixty mg/kg 5-bromo-2-deoxyuridine (BrdU, Sigma) was injected IP 6 hours before sacrifice. BrdU is a thymidine analog that is incorporated during S-phase of cell mitosis. Pancreata were removed, fixed overnight in 4% buffered formalin, processed for embedding in paraffin and histological sections (4 μm) mounted on poly-1-lysine-coated glass slides. BrdU was detected with a BrdU antibody (Sigma, 1:500 and also confirmed with Zymed antibody, 1:250) and BrdU staining kit (Zymed Laboratories Inc). Five to six hundred islets from each condition were then visualized and the number of islets that contained BrdU+ cells as well as the percent BrdU+ nuclei per total number of islet cells was quantified. For insulin staining and determination of β-cell mass histological sections were treated with a guinea-pig insulin antibody (Linco). Antibody binding was visualized with 3,3-diaminobenzidine (DAB) and sections counterstained with hematoxylin (Vectastain ABC kit, Vector Laboratories, using goat anti-guinea pig IgG). The sections were examined using a video camera connected to a computer with imaging software. Sectioned tissue images were acquired through a 2.5× objective of a phase contrast light microscope (Carl Zeiss) and digitized by means of a Sony Power HAD digital camera (an average of 20-30 images per section). The total pancreatic area and β-cell positive area for every image were quantified using MetaMorph 4.6.3 software (Universal Imaging Inc., West Chester).

c-Fos [11] = assay: c-Fos activation in brain after ICV injection; type: in vivo, mice
Method: Briefly, mice that received IP injections were anesthetized with isoflurane 2 h later and the mice that received ICV injections were anesthetized 1.5 and 24 h later. Intracardiac perfusion with ice-cold 4% paraformaldehyde was immediately carried out. Brains were removed immediately at the end of perfusion, kept in ice-cold 4% parafor maldehyde for 72 h, and then transferred to a solution containing 4% paraformaldehyde and 25% sucrose until they floated. Each brain as cut into 30 μm sections using a sliding microtome with a freezing stage. Brain sections from each animal were placed in a 12-well plate and then processed for immunocytochemistry. The free-floating sections from each animal were first incubated in 0.3% H2O2 for 30 min and then washed 3 times in PBS for 5 min/rinse. Thereafter the sections were incubated in blocking serum (normal goat serum/PBS/0.1% Triton) for 45 min at room temperature. The sections were stained for c-Fos with an antibody directed against the amino acid residues 4-17 in rabbit anti-human c-Fos (Calbiochem, 1:30,000) for 48 h at 4° C. […]
In another series of experiments, Tf and GLP-1-Tf were administered intracerebrovenitricular (ICV) and c-Fos activation assessed 1.5 and 24 hours later.

diabetic db/db mice [12] = system: diabetic db/db mice
Method: Male diabetic db/db mice (C57BLKS/J-Lepr^db/Lepr^db) lacking a functioning leptin receptor and their non-diabetic heterozygous littermates were purchased at 4 weeks of age from Jackson Laboratories (Bar Harbor). They were housed, two per cage and fed ad libitum for at least five days before any testing. The same mice were caged together for the duration of the studies.
Plasma insulin levels were measured at 1 and 4 hours.

[13] = compared to hTf-treated animals
[14] = 10 mg/kg, 2 h after administration

glycosylated transferrin: glycosylated serum transferrin
half life [1]: 7 to 10 days

exendin-4 [reference compound]
food intake in the remaining 17 h (db/db mice [2]; 1 nmol/kg IP): caused a decrease in food intake | time for which essentially all measurable food consumption was prevented (db/db mice [2]; 1 nmol/kg IP): 7 h | AP c-Fos response compared to GLP-1-Tf [3]: much more robust | brain areas with c-Fos activation (c-Fos [4]; IP 1 nmol/kg): activated similar areas to GLP-1-Tf in all injected animals

Carbohydrate deficient transferrin: transferrin form elevated in the blood of alcoholic individuals
half life [1]: 14 to 17 days

pREX0585: nL GLP-1 (7-37; A8G, K34A) (PEAPTD)2 mTf; mTf lacking N-glycosylation at sites 413 and 611
insulin secretion (RIN 1046-38 cells): stimulate insulin secretion | insulin secretion (isolated rat islets): stimulate insulin secretion | activity of GLP-1-Tf in serum from the injected monkeys on CHO/GLP-1R [5]: biologically active | insulin secretion (non-diabetic mice [6]; 30 min before glucose): enhanced insulin secretion | peak blood glucose (non-diabetic mice [6]; IPGTT): decreased | time for blood glucose to rise to pre-administration levels (non-diabetic mice [7]): ≤ 24 h | blood glucose concentration and insulin secretion (non-diabetic mice [7]; ad libitum fed): dose-dependently reduced blood glucose concentration and increased insulin secretion | persistence of low blood glucose (non-diabetic mice [7]; higher dose 10 mg/kg): up to 36 hours | blood glucose level (non-diabetic mice [7]; within 3 hours of administration): 70 mg/dL | fasting blood glucose (diabetic db/db mice [8]; SC at 9 pm, fasted overnight, GLP-1-Tf 1 or 10 mg): 132 ± 27 mg/dL | glucose levels after the IPGTT (diabetic db/db mice [8]; [13]): lower glucose levels | plasma insulin levels after the IPGTT (diabetic db/db mice [8]; [13]): higher plasma insulin levels | post-prandial blood glucose levels (non-diabetic mice [9]; 0.1, 1 and 10 mg/kg, compared to Tf only): lower | time for which food intake was decreased by approximately half (non-diabetic mice [9]; IP 1 mg/kg): 2 h | time for which food intake was decreased by approximately half (non-diabetic mice [9]; IP 10 mg/kg): up to 7 h | post-prandial blood glucose levels (db/db mice [2]; 0.1, 1 and 10 mg/kg, compared to Tf treatment): lowered post-prandial blood glucose levels | time for which food intake was decreased by approximately half (db/db mice [2]; IP 1 and 10 mg/kg): 2 h | number of BrdU+ nuclei in islets 24 hours after injection (db/db mice [10]; 10 mg/kg IP, compared to Tf): clear increase in the number of BrdU+ nuclei | islets with 1 or more BRDU+ nuclei (db/db mice [10]; 10 mg/kg IP, third day): all islets | increase in BRDU+ nuclei (db/db mice [10]; 10 mg/kg IP, third day, vs Tf, p<0.01): 4.7 fold | increase in total β-cell mass (db/db mice [10]; 3 days, compared to Tf): 1.7 fold | increase in total β-cell mass (db/db mice [10]; 5 days, compared to Tf): 2.2 fold | increase in total β-cell mass (db/db mice [10]; 8 days, compared to Tf): 4.1 fold | increase in total β-cell mass (db/db mice [10]; 10 days, compared to Tf): 4.3 fold | c-Fos activation, AP (c-Fos [4]; 1 mg/kg): 0/6 | c-Fos activation, NTS (c-Fos [4]; 1 mg/kg): 6/6 | c-Fos activation, PVH (c-Fos [4]; 1 mg/kg): 6/6 | c-Fos activation, area postrema (AP) (c-Fos [4]; [14]): 4/6 | c-Fos activation, nuclei of the solitary tract (NTS) (c-Fos [4]; [14]): 6/6 | c-Fos activation, paraventricular nuclei of the hypothalamus (PVH) (c-Fos [4]; [14]): 6/6 | c-Fos activation ninety minutes after ICV injection (c-Fos [11]; 1.5 h): c-Fos activation had occurred in PVH and NTS but not AP | c-Fos activation 24 h after ICV injection (c-Fos [11]; 24 h): not present in any of the three brain regions | plasma insulin levels at 1 hour (diabetic db/db mice [12]; SC 0.1 mg/kg): increased plasma insulin levels | beginning of blood glucose effect after injection (diabetic db/db mice [12]; SC 1 and 10 mg/kg): 1 h | duration of increased plasma insulin levels (diabetic db/db mice [12]; SC 1 and 10 mg/kg): ≥ 4 h | blood glucose (diabetic db/db mice [12]; SC both 1 and 10 mg/kg, ad libitum, from 358±23): 115 ± 18 mg/dL | duration of effect on blood glucose (diabetic db/db mice [12]; SC highest dose): at least 12 hours | duration of blood glucose lowering (diabetic db/db mice [12]; SC low dose 0.1 mg/kg): 4 h
